What was measured:
[1] = test system: liver lysosomal (enzyme) extract; test: Digestion assay with rat liver lysosomal extract; format: biochemical; settings: for Velocity, Sample / Velocity, Normalized: Table 3; for Velocity, Sample: FCitFP linker with various R5; for rate and time to completion of digestion, proline at A1 changed to alanine: 33 vs 30, 39 vs 23; for velocity of digestion, addition of phenylalanine: 54 vs 57, 56 vs 59
Experimental: Various amino acid combinations, tetrapeptides, were used to link various first moieties (R^5) and an AENA report group second compound (R^6) to form assay substrates (substrates). Cleavage rate of the peptides were evaluated by analysis of digestion of the substrates in the presence of rat lysosomal extract.
Reporting groups were coupled to the C-terminus of the peptide substrates as described above for UV-vis monitoring to explore the influence of amino acid sequence on kinetics of peptide degradation by HPLC. N-(2-aminoethyl)-4-nitroaniline (AENA) or N-(aminoethyl)-5-napthylamine-1-sulfonic acid (EDANS) were used as reporting groups for HPLC monitoring as neither absorptivity nor lambda maximum were affected for either after cleavage from the peptide. The N-terminus of each peptide substrate was modified with either methoxy polyethylene glycol (PEG12) or N-acetyl galactosamine (NAG(OR)3) (FIG. 1).
Proteolytic digestion experiments were carried out at a fixed substrate concentration (0.51 μmol) using liver lysosomal (enzyme) extract (0.45 μg/μL) in a 25 mM MES solution buffered to pH 5 containing 1% CHAPS and 1.8 mM DTT incubated at 37° C. Enzyme extract was activated in the presence of DTT for 15 minutes at 37° C. prior to addition of AENA labeled peptide substrates. At various time points, up to 26 h, 20 μL aliquots were removed and acidified to a pH of 3 with TFA. Analysis of fractions was performed using HPLC with a Aquasil C18 reverse-phase column (250×4.6, Thermofisher, Waltham, Mass.), monitored at 390 nm and 335 nm for AENA and EDANS respectively. Elution was performed with a gradient of acetonitrile and water buffered with 0.1% formic acid. Generation of unmodified reporter molecule was measured. To minimize freeze thaw cycles the lysosomal extract was dispensed into multiple aliquots prior to storage at −80° C. A new aliquot was employed for each study and used immediately upon thawing. Lysosomal extract was sourced from female Hans Wistar rats by differential density gradient centrifugation (Graham et al. 2000). Protein concentration of lysosomal extract was determined by standard BCA protein assay protocols. […]
Rate (also called velocity of degradation or velocity) was extrapolated during early linear turnover (Table 2). As used herein, rate is defined as the linear rate of reporting group generation at less than 50% completion (digestion rate was assumed to be linear at less than 50% completion). For substrates in which cleavage deviated from consecutive first order kinetics, the percent of reporting group liberated at the endpoint of digestion was used as a metric for comparison.

Factor VII = test: Serum Factor VII activity after DPC-mediated siRNA delivery in mice; format: in vivo; settings: for effectiveness as modifying agent in DPC-mediated siRNA delivery: Factor VII knockdown; for Relative F VII activity: polymer-siRNA conjugate modified with the PEG-peptide agent and CDM-NAG, 1 mg/kg polymer, 0.25 mg/kg siRNA, day 5
Experimental: PEG tetrapeptide modifying agents were synthesized by using a PEG group at R^5 and an activated ester at R^7 (formula V). Membrane active polyamines (see below) were modified with Factor VII siRNA, CDM-NAG and the indicated tetrapeptide (45b, 46) or tripeptide control (47) modifying agents as previously described (U.S. Pat. Nos. 8,137,695 and 8,426,554) to form a dynamic polyconjugate delivery polymer. 1 mg/kg polymer conjugated to 0.25 mg/kg siRNA was then injected into mice. At day 5, samples were collected and assayed for Factor VII. Knockdown of Factor VII requires cleavage of the modifying agent from the polyamine at a rate similar to the previously described CDM masking agents and dipeptide-PABC masking agents. […] For dynamic polyconjugate delivery polymers modified with PEG12 functionalized tetrapeptides, the order of increasing knockdown in vivo (45b>46>47) correlated with in vitro kinetic results. Validation of the in vitro model for kinetic evaluation was shown by the results obtained in animal studies.
Polyacrylate EAB in 5 mM pH 8.0 HEPES buffer was modified 1.5 wt % with a N-hydroxysuccinimidyl activated PEG4 azide (Azido-dPEG4-NHS ester from Quanta Biodesign) to provide azide groups for subsequent attachment of siRNA. The azide-modified polymer was then diluted to 5 mg/mL in 60 mg/mL HEPES base. To this solution was added 15 mg/mL (3 wt equivalents) of the indicated protease-cleavable PEG modifying reagents (the described herein tetrapeptide agents or PEG12-FCit-PABC-PNP (8426554) to modify 40-50% of available amine groups. After 1 h, DBCO-modified rodent factor VII siRNA (0.25 wt eq relative to polymer) was added to polymer solution. After incubation overnight, conjugates were further modified by addition of molar excess relative to available amine groups of an N-acetylgalactosamine derivative CDM-NAG, NAG-A^4-A^3-A^2-A^1-NHS or NAG-ACit-PABC-PNP (U.S. Pat. No. 8,426,554, Rozema et al. 2015, Carlson et al. 2015), and incubated for 30 min to reversibly modify remaining polymer EAB amines.
Male Wistar Han rats and female ICR mice, 6 to 8 weeks old, were obtained from Harlan Sprague-Dawley, (Indianapolis, Ind.). Animals were handled in accordance with animal used protocols approved by the Animal Care and Use Committee at Arrowhead Madison Inc. Rodents were maintained on a 12 hours light/dark cycle with free access to water and food (Harlan Teklad Rodent Diet, Harlan, Madison, Wis.). Animals were injected with 1 mg/kg polymer conjugated to 0.25 mg/kg siRNA. Samples were collected 5 days post injection.
FVII activity in serum was measured with a chromogenic method using a test kit (BIOPHEN VII, Aniara, Mason, Ohio) following manufacturer's recommendations. Absorbance of colorimetric development was measured using a Tecan Safire-2 microplate reader at 405 nm.

[2] = AENA substrates, linear rate of reporter generation at <50% completion, pH 5, 37° C.
[3] = AENA substrates, normalized with compound 60 velocity (average 123.8 nmol/h)
[4] = Table 4, dipeptide EDANS C-terminal modified substrates
[5] = Table 4, dipeptide EDANS substrates, normalized with compound 60

| Substance | Sample Velocity [1, 2] [nmol/h] | Normalized Velocity [1, 3] [nmol/h] | Sample Velocity [1, 4] [nmol/h] | Normalized Velocity [1, 5] [nmol/h] | other results |
| --- | --- | --- | --- | --- | --- |
| PEG12-FCitFL- AENA [Compound 27] | 94.5 | 94.7 |  |  | % Released at Endpoint ([1]; endpoint at 24 hours): **99.7% |
| NAG(OAc)3-FCitFP-AENA [Compound 22a] |  |  |  |  | rate of proteolytic digestion, influence of R5 ([1]; 22a vs 23, 22a vs 22b): essentially equivalent in terms of rate of proteolytic digestion; Velocity, Sample [1]: 244.9 nmol/h; Velocity, Normalized ([1]; normalized with compound 60): 210.5 nmol/h |
| PEG-ACitAP-OSu [Compound 46] |  |  |  |  | effectiveness as modifying agent in DPC-mediated siRNA delivery (Factor VII): effective modifying agents; Relative F VII activity (Factor VII): 66 ± 28 |
| PEG12-FNFP- AENA [Compound 32b] | 42.0 | 38.6 |  |  | % Released at Endpoint ([1]; endpoint at 26 hours): ***99.3% |
| H2N-F(Nme)A-Glu(EDANS)-NH-(CH2)2-OH [Compound 51] |  |  | 177.6 | 162.6 |  |
| H2N-LP-PEG4-Glu(EDANS)-NH-(CH2)2-OH [Compound 49] |  |  | 349.1 | 338.7 |  |
| NAG(OH)3-FCitFP-AENA [Compound 22b] |  |  |  |  | Velocity, Sample [1]: 223.7 nmol/h; Velocity, Normalized ([1]; normalized with compound 60): 201.0 nmol/h |
| NAG(OAc)3-ACA- AENA [Compound 43] |  |  |  |  | % Released at Endpoint (21 hr) [1]: 1.1% |
| PEG12-FDFP- AENA [Compound 34b] | 18.0 | 16.6 |  |  | % Released at Endpoint ([1]; endpoint at 26 hours): ***66.5% |
| PEG12-FKFL- AENA [Compound 25b] | 117.0 | 117.4 |  |  | % Released at Endpoint ([1]; endpoint at 24 hours): **99.8% |
| NAG(OH)3-FCitAA- AENA [Compound 33] |  |  |  |  | rate and time to completion of digestion, proline at A1 changed to alanine [1]: dramatic reduction in rate and time to completion of digestion; % Released at Endpoint (21 hr) [1]: 68.5% |
| NAG(OAc)3-VCitFP- AENA [Compound 28] | 84.3 | 75.8 |  |  | % Released at Endpoint ([1]; endpoint at 23 hours): *99.4% |
| PEG12-FKFP- AENA [Compound 24b] | 134.8 | 123.9 |  |  | velocity, proline vs leucine at A1 ([1]; 23 vs 27, 24b vs 25b): small increase in velocity; % Released at Endpoint ([1]; endpoint at 26 hours): ***98.9% |
| PEG-CitAP-OSu [Compound 47] |  |  |  |  | Relative F VII activity (Factor VII): 97 ± 34 |
| PEG12-FCitF(Nme)A- AENA [Compound 29] | 62.5 | 62.6 |  |  | rate and completion of digestion, N-methylation at A1 ([1]; 29 vs 39): faster rate and faster completion of digestion; % Released at Endpoint ([1]; endpoint at 23 hours): *97.3% |
| H2N-FA-PEG4-Glu(EDANS)-NH-(CH2)2-OH [Compound 56] |  |  | 61.3 | 56.1 | velocity of digestion, addition of phenylalanine [1]: substantial increase in the velocity of digestion |
| NAG(OAc)3-FCitFA- AENA [Compound 39] |  |  |  |  | rate and time to completion of digestion, proline at A1 changed to alanine [1]: dramatic reduction in rate and time to completion of digestion; % Released at Endpoint (21 hr) [1]: 40.5% |
| NAG(OAc)3-CitAAA- AENA [Compound 36] |  |  |  |  | % Released at Endpoint ([1]; endpoint at 24 hours): **47.7% |
| H2N-GP-PEG4-Glu(EDANS)-NH-(CH2)2-OH [Compound 58] |  |  | 14.4 | 13.9 |  |
| H2N-SP-PEG4-Glu(EDANS)-NH-(CH2)2-OH [Compound 53] |  |  | 145.0 | 140.7 |  |
| PEG-FCitAP-OSu [Compound 45b] |  |  |  |  | effectiveness as modifying agent in DPC-mediated siRNA delivery (Factor VII): effective modifying agents; Relative F VII activity (Factor VII): 40 ± 06 |
| PEG12-GFLG- AENA [Compound 38] | 10.0 | 9.7 |  |  | % Released at Endpoint ([1]; endpoint at 24 hours): **47.8% |
| H2N-L-PEG4-Glu(EDANS)-NH-(CH2)2-OH [Compound 57] |  |  | 58.3 | 53.3 |  |
| NAG(OAc)3-ACitAA- AENA [Compound 35] |  |  |  |  | % Released at Endpoint (21 hr) [1]: 49.8% |
| H2N-NP-PEG4-Glu(EDANS)-NH-(CH2)2-OH [Compound 52] |  |  | 156.5 | 151.9 |  |

The next lines start with results.

| Sample Velocity [1, 2] [nmol/h] | Normalized Velocity [1, 3] [nmol/h] | Sample Velocity [1, 4] [nmol/h] | Normalized Velocity [1, 5] [nmol/h] | Substance | other results |
| --- | --- | --- | --- | --- | --- |
| 49.5 | 49.6 |  |  | PEG12-ACitFP- AENA [Compound 31] | % Released at Endpoint ([1]; endpoint at 23 hours): *98.9% |
|  |  | 125.7 | 115.1 | H2N-AP-PEG4-Glu(EDANS)-NH-(CH2)2-OH [Compound 55] |  |
| 119.5 | 102.5 |  |  | NAG(OAc)3-FCitVP- AENA [Compound 26] | % Released at Endpoint (21 hr) [1]: 97.8% |
|  |  | 213.5 | 195.5 | H2N-VP-PEG4-Glu(EDANS)-NH-(CH2)2-OH [Compound 50] |  |
|  |  | 7.9 | 7.2 | H2N-A-PEG4-Glu(EDANS)-NH-(CH2)2-OH [Compound 59] |  |
|  |  | 155.0 | 132.4 | H2N-FL-PEG4-Glu(EDANS)-NH-(CH2)2-OH [Compound 54] | velocity of digestion, addition of phenylalanine [1]: substantial increase in the velocity of digestion |
|  |  | 448.5 | 383.0 | H2N-FP-PEG4-Glu(EDANS)-NH-(CH2)2-OH [Compound 48] |  |
| 1.6 | 1.6 |  |  | NAG(OAc)3-AAA- AENA [Compound 41] | % Released at Endpoint (21 hr) [1]: 8.2% |
| 3.7 | 3.9 |  |  | NAG(OAc)3-CitAA- AENA [Compound 40] | % Released at Endpoint (21 hr) [1]: 15.6% |

Reference: patent US10005815B2, “Biologically cleavable tetrapeptide linking agents” (Arrowhead Madison Inc., priority 2015, dated 2018)
